Laboratory results as given in PubChem BioAssay AID250 (DTP/NCI, 2004).
Several values for one entry are separate records, joined by “and”; a condition that tells them apart may be missing. Identical values can stand only once. Toxic doses and inconclusive results are not listed. The calls were made as follows: active = survival T/C of 150% or more; inactive = T/C below 125% in these data.

Test system: BDF1 mice, L1210 leukemia sc, survival T/C
Experiment: NCI In Vivo Anticancer Drug Screen. Data for tumor model L1210 Leukemia (subcutaneous) in B6D2F1 (BDF1) mice
Details: higher = longer survival
Method in brief: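 Read-out: T/C ratio, i.e. survival or tumor size in treated mice over that in vehicle-treated controls, from mice bearing transplantable tumors.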

Measured: T/C

COc1cccc2c1C(=O)c1c(O)c3c(c(O)c1C2=O)CC(O)(C(=O)CO)CC3OC1CC(N)C(O)C(C)O1 (centres undefined)
inactive: endpoint: median survival time, dose: 11.4 mg/kg/injection, schedule: Q04DX003 (ip), vehicle: saline 87 % of control | endpoint: median survival time, dose: 22.8 mg/kg/injection, schedule: Q04DX003 (ip), vehicle: saline 89 % of control | endpoint: median survival time, dose: 45.6 mg/kg/injection, schedule: Q04DX003 (ip), vehicle: saline 90 % of control | endpoint: median survival time, dose: 91.2 mg/kg/injection, schedule: Q04DX003 (ip), vehicle: saline 95 % of control | endpoint: median survival time, dose: 182.4 mg/kg/injection, schedule: Q04DX003 (ip), vehicle: saline 103 % of control

CC(C)CN(N)C(N)=O
inactive: endpoint: median survival time, dose: 78.0 mg/kg/injection, schedule: Q01DX Z (sc), vehicle: saline 100 % of control | endpoint: median survival time, dose: 130.0 mg/kg/injection, schedule: Q01DX Z (sc), vehicle: saline 100 % of control | endpoint: median survival time, dose: 216.0 mg/kg/injection, schedule: Q01DX Z (sc), vehicle: saline 100 % of control | endpoint: median survival time, dose: 360.0 mg/kg/injection, schedule: Q01DX Z (sc), vehicle: saline 111 % of control | endpoint: median survival time, dose: 600.0 mg/kg/injection, schedule: Q01DX Z (sc), vehicle: saline 111 % of control

Nc1ccc(OC(=O)Oc2ccc(N)cc2)cc1
inactive: endpoint: median survival time, dose: 180.0 mg/kg/injection, schedule: Q01DX Z (sc), vehicle: carboxymethylcellulose (CMC) 111 % of control | endpoint: median survival time, dose: 833.0 mg/kg/injection, schedule: Q01DX Z (sc), vehicle: carboxymethylcellulose (CMC) 100 % of control

O=c1[nH]cnc2[nH]ncc12
inactive: endpoint: mean survival time, dose: 20.0 mg/kg/injection, schedule: Q01DX001 (ip), vehicle: saline 97 % of control | endpoint: mean survival time, dose: 30.0 mg/kg/injection, schedule: Q01DX001 (ip), vehicle: saline 101 % of control | endpoint: mean survival time, dose: 40.0 mg/kg/injection, schedule: Q01DX001 (ip), vehicle: saline 98 % of control | endpoint: mean survival time, dose: 80.0 mg/kg/injection, schedule: Q01DX001 (ip), vehicle: saline 98 % of control | endpoint: median survival time, dose: 10.0 mg/kg/injection, schedule: Q01DX009 (ip), vehicle: saline 99 % of control (2×) and 100 % of control | endpoint: median survival time, dose: 20.0 mg/kg/injection, schedule: Q01DX001 (ip), vehicle: saline 90 % of control | endpoint: median survival time, dose: 20.0 mg/kg/injection, schedule: Q01DX009 (ip), vehicle: saline 100 % of control and 101 % of control (2×) | endpoint: median survival time, dose: 30.0 mg/kg/injection, schedule: Q01DX001 (ip), vehicle: saline 100 % of control | endpoint: median survival time, dose: 40.0 mg/kg/injection, schedule: Q01DX001 (ip), vehicle: saline 100 % of control | endpoint: median survival time, dose: 40.0 mg/kg/injection, schedule: Q01DX009 (ip), vehicle: saline 99 % of control (2×) and 100 % of control | endpoint: median survival time, dose: 80.0 mg/kg/injection, schedule: Q01DX001 (ip), vehicle: saline 100 % of control

CCCCCCCSc1ncnc2nc[nH]c12
inactive: endpoint: median survival time, dose: 108.0 mg/kg/injection, schedule: Q01DX Z (sc), vehicle: methylcellulose (MC) 111 % of control | endpoint: median survival time, dose: 180.0 mg/kg/injection, schedule: Q01DX Z (sc), vehicle: methylcellulose (MC) 111 % of control | endpoint: median survival time, dose: 300.0 mg/kg/injection, schedule: Q01DX Z (sc), vehicle: methylcellulose (MC) 100 % of control | endpoint: median survival time, dose: 500.0 mg/kg/injection, schedule: Q01DX Z (sc), vehicle: methylcellulose (MC) 100 % of control | endpoint: median survival time, dose: 833.0 mg/kg/injection, schedule: Q01DX Z (sc), vehicle: methylcellulose (MC) 100 % of control | endpoint: median survival time, dose: 1388.0 mg/kg/injection, schedule: Q01DX Z (sc), vehicle: methylcellulose (MC) 100 % of control
